According to paper PMC9428149, “Tackling recalcitrant Pseudomonas aeruginosa infections in critical illness via anti-virulence monotherapy” (Nature Communications, 2022):
≈ marks a conversion by molar mass, not a printed value. Where two headings read alike, the source gives them in different places.

Columns and labels:
PA14 AT/P cells = assay: AT/P cells formation assay in PA14; assay type: cell-based, Pseudomonas aeruginosa; details: for inhibition at 10 µM: Pseudomonas aeruginosa, PA14, 24 h, read-out: inhibition of AT/P cells formation
[1] = test system: pqsA promoter (PA14 PpqsA-GFPASV); assay: pqsA-GFP reporter expression; assay type: cell-based, Pseudomonas aeruginosa; details: Pseudomonas aeruginosa; for activity at 50 µM: PA14, read-out: % Production pqsA-GFP; for IC50: PA14, read-out: IC50 pqsA-GFP expression, PA14, 13 concentrations
[2] = test system: pyocyanin production in PA14; assay: Pyocyanin production assay; details: Pseudomonas aeruginosa; for activity at 50 µM: PA14, 18 h, read-out: % Production Pyocyanin; for IC50: PA14, read-out: IC50 pyocyanin production
Procedure: The over-day culture was grown to OD600nm 1.5., diluted again at 1:10,000 in 5 mL LB and incubated with 10 μM of the test compound or the vehicle control for 18 hours at 37 °C and 200 rpm in an incubator shaker. After 18 h, 1 mL of culture was centrifuged for 2 min at 20.000 x g. The supernatant was transferred to a new tube, 200 μL of this were loaded in a flat-bottom 96-well plate, and the pyocyanin levels were quantified by measuring at OD690nm in the infinite F200 plate reader using the Magellan software (Tecan, Switzerland). […] The percent of pyocyanin was calculated compared to the PA14 culture grown in the absence of compounds.
To determine the IC50 of pyocyanin production, we followed the same process as above. […] Using GraphPad Prism Software, the IC50 curve was plotted against percent inhibition of pyocyanin production at each concentration using PA14 in the absence of compounds as a control.

[3] = test system: mvfR mutant constitutively expressing the pqsABCDE operon; assay type: cell-based; details: Pseudomonas aeruginosa, control about 100, single replicates (Figure 4a)
MvfR protein (MvfRC87) = target: T1, MvfR protein (MvfRC87) (Pseudomonas aeruginosa, UniProt Q9I4X0); assay type: binding; details: SPR
T1 construct: The MvfRC87 protein purified as in Xiao et. al., 2006; made in house
T1 sequence (Q9I4X0 87-332): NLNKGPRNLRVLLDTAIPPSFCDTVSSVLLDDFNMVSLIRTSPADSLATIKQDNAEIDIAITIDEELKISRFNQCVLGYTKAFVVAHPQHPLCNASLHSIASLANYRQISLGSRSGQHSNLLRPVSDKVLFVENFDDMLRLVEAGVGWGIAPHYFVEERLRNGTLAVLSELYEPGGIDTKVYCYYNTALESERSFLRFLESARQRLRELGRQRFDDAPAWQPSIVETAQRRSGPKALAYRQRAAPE
Outline: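 MvfRC87 amine-coupled to a CM7 chip (3000–5000 RU) and binding measured by SPR. Double-reference-corrected responses 5 s before end of association plotted against concentration, for inhibitor alone and with native ligand PQS, compared with responses calculated for different binding sites.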

ΔmvfR biofilm = assay: Biofilm formation of ΔmvfR mutant (off-target); details: Pseudomonas aeruginosa, PA14, 24 h, read-out: Biofilm formation, ΔmvfR + compound; PA14 about 100; single replicates (Figure 4c)
Procedure: Biofilm was grown in the 96-well microtiter plate at 37 °C for 24 h containing M63 minimal media in the presence of 10 µM of the compounds or vehicle. The biofilm grown with the vehicle was considered as a control. The percentage value was calculated in comparison to the PA14 control. a–c Data represent at least n = 3, each dot on the graph represents one biological replicate. The number of biological replicates for each compound and strain is depicted in the graph. The error bars denote ±SEM.
The overnight grown starter culture was diluted 1:1000 in 5 mL LB media in a glass tube and was incubated at 37 °C and 200 rpm in an incubator shaker until the culture reached an OD600nm 3.0. The culture was then diluted at 1:100 in M63 minimal media supplemented with 0.2% glucose, 0.5% Casamino Acids, and 1 mM MgSO4. Initiation of the Biofilm formation was performed in the 96 well plates; 200 µL of diluted culture was added in the wells with (10 µM) or without compounds. The cultures were allowed to grow at 37 °C in static conditions for 24 hours. Thereafter, planktonic culture was removed from the wells, and wells were washed three times with distilled water (DW). Biofilm was stained with 0.1% crystal violet and incubated for 15 min at room temperature (RT). Access dye was removed from the wells and washed off three times with DW, and 200 µL ethanol: acetone (80:20) was added to the wells. The plate was incubated for 30 min at RT, and the OD was measured by spectrophotometry at 570 nm in the infinite F200 plate reader using the Magellan software (Tecan, Switzerland). Percent biofilm formation was calculated in comparison to PA14 culture that was grown in the absence of compounds.

[4] = Solubility in iPBS pH 7.4 by HPLC; assay type: physicochemical; details: isotonic phosphate buffer (iPBS), aqueous with cosolvent or surfactant or cyclodextrin, kinetic from dmso stock; iPBS pH 7.4, HPLC; read-out: Solubility (M) in PBS
Outline: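 Compounds from 10 mM DMSO stock shaken 4 h at room temperature in iPBS pH 7.4 (10 mM PBS, 2.7 mM KCl, 140 mM NaCl, 0.05% Tween), then filtered. Concentration measured by HPLC-UV against a known standard solution; solubility given as ratio of compound in test solution to standard.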

[5] = test system: MvfR-regulated small molecules in PA14; assay: Production of HAQs, 2-AA, DHQ and AA in PA14 cultures (LC-MS); details: Pseudomonas aeruginosa
Procedure: The HAQs HHQ, PQS, HQNO, and non-HAQs: 2-AA and DHQ produced by PA14 cells were quantified in the presence of NAMs. The overnight grown starter culture was diluted 1:100 in 5 mL LB media in a glass tube and was allowed to grow in the presence (50 µM) or absence of compound at 37 °C and 200 rpm in an incubator shaker until OD600 was 3. Bacterial cultures were subsequently mixed 1:1 (400 μL: 400 μL) with 100% methanol containing 20 ppm (20 μg mL^−1) of tetradeutero-PQS (PQS-D4) and 10 ppm of tetradeutero-HHQ (HHQ-D4) in a 1.5 mL Eppendorf tube. The mixture was vortexed for 5 seconds and spun down for 5 minutes at 12,000 x g. A 700 μL aliquot of the supernatant was removed and stored in glass vials at −20 °C until further liquid chromatography-mass spectrophotometry (LC/MS) analysis as previously described in Lepine et al., 2003[66]. LC/MC analysis was performed using a Micromass Quattro II triple quadrupole mass spectrometer (Micromass Canada, Pointe-Claire, Canada) in positive electrospray ionization mode, interfaced to an HP1100 HPLC equipped with a 4.5 × 150 mm reverse-phase C8 column.
GraphPad Prism 9.2.0 software was used to plot the IC50 curve against the percent inhibition of these small molecules’ production at each concentration.

[6] = test system: PA14 isogenic mutant ΔmvfR AT/P cells; assay: AT/P cell formation in ΔmvfR mutant (off-target); details: Pseudomonas aeruginosa, PA14, 24 h, read-out: AT/P cell formation, ΔmvfR + compound; PA14 about 100; single replicates (Figure 4b)
[7] = test system: 16 MDR P. aeruginosa clinical isolates; assay: Pyocyanin production in MDR clinical isolates; details: Pseudomonas aeruginosa, 18 h, Control about 100, replicates
Procedure: The over-day culture was grown to OD600nm 1.5., diluted again at 1:10,000 in 5 mL LB and incubated with 10 μM of the test compound or the vehicle control for 18 hours at 37 °C and 200 rpm in an incubator shaker. After 18 h, 1 mL of culture was centrifuged for 2 min at 20.000 x g. The supernatant was transferred to a new tube, 200 μL of this were loaded in a flat-bottom 96-well plate, and the pyocyanin levels were quantified by measuring at OD690nm in the infinite F200 plate reader using the Magellan software (Tecan, Switzerland). The same procedure was also followed for the pyocyanin production assessment for all the P. aeruginosa clinical isolates assessed in this study. The percent of pyocyanin was calculated compared to the PA14 culture grown in the absence of compounds.
Pyocyanin production was measured in 16 P.
aeruginosa clinical isolates 18hr post-growth in the presence or absence of 10 µM of each NAM
compound. The percent of pyocyanin production was calculated by comparing the same strain grown
in the presence of the vehicle control. b.

[8] = read-out: DHQ, ΔmvfR-pqsABCD strain
[9] = read-out: HQNO, ΔmvfR-pqsABCD strain
[10] = read-out: PQS, ΔmvfR-pqsABCD strain
[11] = PA14, read-out: % Production 2-AA
[12] = PA14, read-out: % Production AA
[13] = PA14, read-out: % Production DHQ
[14] = PA14, read-out: % Production HHQ
[15] = PA14, read-out: % Production HQNO
[16] = PA14, read-out: % Production PQS
[17] = PA14, read-out: HHQ production inhibition
[18] = PA14, read-out: HQNO production inhibition
[19] = PA14, read-out: PQS production inhibition
[20] = PA14, read-out: inhibition of 2-AA production
[21] = PA14, read-out: inhibition of DHQ production
[22] = read-out: Pyocyanin production relative to Control, clinical isolate LGR-4325
[23] = read-out: Pyocyanin production relative to Control, clinical isolate LGR-4326
[24] = read-out: Pyocyanin production relative to Control, clinical isolate LGR-4327
[25] = read-out: Pyocyanin production relative to Control, clinical isolate LGR-4328
[26] = read-out: Pyocyanin production relative to Control, clinical isolate LGR-4330
[27] = read-out: Pyocyanin production relative to Control, clinical isolate LGR-4331 (first section, r117)
[28] = read-out: Pyocyanin production relative to Control, clinical isolate LGR-4331 (second section, r140)
[29] = read-out: Pyocyanin production relative to Control, clinical isolate LGR-4333
[30] = read-out: Pyocyanin production relative to Control, clinical isolate LGR-4343
[31] = read-out: Pyocyanin production relative to Control, clinical isolate LGR-4344
[32] = read-out: Pyocyanin production relative to Control, clinical isolate LGR-4348
[33] = read-out: Pyocyanin production relative to Control, clinical isolate LGR-4356
[34] = read-out: Pyocyanin production relative to Control, clinical isolate LGR-4362
[35] = read-out: Pyocyanin production relative to Control, clinical isolate LGR-4363
[36] = read-out: Pyocyanin production relative to Control, clinical isolate LGR-4364 (first section, r326)
[37] = read-out: Pyocyanin production relative to Control, clinical isolate LGR-4364 (second section, r349)

N#Cc1ccc(NC(=O)CC(=O)Nc2ccc(C#N)nc2)cc1 [D77]
inhibition at 10 µM (PA14 AT/P cells): ≥ 51% | activity at 50 µM [1]: 1% | IC50 [1]: 6400 nM | activity at 50 µM [2]: 7% | IC50 [2]: 4070 nM | activity at 50 µM ([3]; read-out: 2-AA, ΔmvfR-pqsABCD strain): 104% | activity at 50 µM [3, 8]: 94.5% | activity at 50 µM ([3]; read-out: HHQ, ΔmvfR-pqsABCD strain): 98% | activity at 50 µM [3, 9]: 102% | activity at 50 µM [3, 10]: 90.2% | Response Unit (RU) (MvfR protein (MvfRC87); Concentration 1.00E-05 M): 30.9 RU | Response Unit (RU) (MvfR protein (MvfRC87); Concentration 1.00E-06 M): 19.8 RU | Response Unit (RU) (MvfR protein (MvfRC87); Concentration 1.00E-07 M): 5.9 RU | Response Unit (RU) (MvfR protein (MvfRC87); Concentration 1.00E-08 M): 0.7 RU | Response Unit (RU) (MvfR protein (MvfRC87); Concentration 3.16E-06 M): 26.6 RU | Response Unit (RU) (MvfR protein (MvfRC87); Concentration 3.16E-07 M): 11.8 RU | Response Unit (RU) (MvfR protein (MvfRC87); Concentration 3.16E-08 M): 2.2 RU | activity at 10 µM (ΔmvfR biofilm): 23.6% | solubility at 4 h [4]: 3.9e-05 M (≈ 11.9 µg/mL) | activity at 50 µM [5, 11]: 19% | activity at 50 µM [5, 12]: 777% | activity at 50 µM [5, 13]: 20% | activity at 50 µM [5, 14]: 10% | activity at 50 µM [5, 15]: 64% | activity at 50 µM [5, 16]: 24% | inhibition at 50 µM [5, 17]: 89 to 99% | inhibition at 50 µM [5, 18]: 40 to 92% | inhibition at 50 µM [5, 19]: 76 to 97% | inhibition at 50 µM [5, 20]: 82 to 95% | inhibition at 50 µM [5, 21]: 82 to 96% | activity at 10 µM [6]: 29.3% | activity at 10 µM [7, 22]: 15% | activity at 10 µM [7, 23]: 12.1% | activity at 10 µM [7, 24]: 20.6% | activity at 10 µM [7, 25]: 25.6% | activity at 10 µM [7, 26]: 35.1% | activity at 10 µM [7, 27]: 18.8% | activity at 10 µM [7, 28]: 8.31% | activity at 10 µM [7, 29]: 11.8% | activity at 10 µM [7, 30]: 22.6% | activity at 10 µM [7, 31]: 26.1% | activity at 10 µM [7, 32]: 19% | activity at 10 µM [7, 33]: 14.3% | activity at 10 µM [7, 34]: 39.2% | activity at 10 µM [7, 35]: 18.5% | activity at 10 µM [7, 36]: 18.9% | activity at 10 µM [7, 37]: 16.9%

N#Cc1ccc(NC(=O)CC(=O)Nc2ccc(C#N)cc2)cc1 [D43]
AT/P cells formation, percentage of control (single replicates) (PA14 AT/P cells; PA14, 10 μg mL^−1 meropenem, 10 µM compound, 24 h, control PA14 + vehicle): 39.10% | inhibition at 10 µM (PA14 AT/P cells): ≥ 51% | activity at 50 µM [1]: 8% | IC50 [1]: 970 nM | activity at 50 µM [2]: 8% | IC50 [2]: 1380 nM | activity at 50 µM [3, 8]: 103% | activity at 50 µM [3, 9]: 91.3% | activity at 50 µM [3, 10]: 99.4% | Response Unit (RU) (MvfR protein (MvfRC87); Concentration 1.00E-05 M): 29.2 RU | Response Unit (RU) (MvfR protein (MvfRC87); Concentration 1.00E-06 M): 22.5 RU | Response Unit (RU) (MvfR protein (MvfRC87); Concentration 1.00E-07 M): 9.9 RU | Response Unit (RU) (MvfR protein (MvfRC87); Concentration 1.00E-08 M): 2.7 RU | Response Unit (RU) (MvfR protein (MvfRC87); Concentration 3.16E-06 M): 26.7 RU | Response Unit (RU) (MvfR protein (MvfRC87); Concentration 3.16E-07 M): 16.5 RU | Response Unit (RU) (MvfR protein (MvfRC87); Concentration 3.16E-08 M): 5 RU | activity at 10 µM (ΔmvfR biofilm): 41.4% | solubility at 4 h [4]: 1.1e-05 M (≈ 3.35 µg/mL) | activity at 50 µM [5, 11]: 19% | activity at 50 µM [5, 12]: 531% | activity at 50 µM [5, 13]: 34% | activity at 50 µM [5, 14]: 22% | activity at 50 µM [5, 15]: 39% | activity at 50 µM [5, 16]: 24% | inhibition at 50 µM [5, 17]: 89 to 99% | inhibition at 50 µM [5, 18]: 40 to 92% | inhibition at 50 µM [5, 19]: 76 to 97% | inhibition at 50 µM [5, 20]: 82 to 95% | inhibition at 50 µM [5, 21]: 82 to 96% | activity at 10 µM [6]: 30.1% | activity at 10 µM [7, 22]: 14.5% | activity at 10 µM [7, 23]: 9.84% | activity at 10 µM [7, 24]: 26.2% | activity at 10 µM [7, 25]: 9.98% | activity at 10 µM [7, 26]: 15% | activity at 10 µM [7, 27]: 16.3% | activity at 10 µM [7, 28]: 11.8% | activity at 10 µM [7, 29]: 15.2% | activity at 10 µM [7, 30]: 24.3% | activity at 10 µM [7, 31]: 25.8% | activity at 10 µM [7, 32]: 12.6% | activity at 10 µM [7, 33]: 20.8% | activity at 10 µM [7, 34]: 23.7% | activity at 10 µM [7, 35]: 13.4% | activity at 10 µM [7, 36]: 21.7% | activity at 10 µM [7, 37]: 19.3%
